The values below are quoted from earlier work in patent publication US20050221347A1, “Inhibitors of binding between proteins and macromolecular ligands” (Thrasos, Inc., priority 1999, published 2005).

pKd: −log10 of the molar value.

The target of the data set is alpha subunit of the interleukin-2 receptor (Homo sapiens, UniProt P60568).
alpha subunit of the interleukin-2 receptor, sequence (P60568 21-153): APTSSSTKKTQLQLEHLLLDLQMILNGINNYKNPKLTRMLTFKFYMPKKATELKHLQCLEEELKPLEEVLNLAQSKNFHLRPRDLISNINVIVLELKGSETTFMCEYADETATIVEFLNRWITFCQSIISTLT

Turning to `COC(=O)[C@H](Cc1ccc(C#Cc2ccccc2)cc1)NC(=O)C[C@H]1CCCN(C(=N)N)C1` [Structural Formula (I)], the pKd (binding to the alpha subunit of the interleukin-2 receptor, described in Tilley et al., J. Am. Chem. Soc 119:7589 (1997)) is roughly 5.52. The “inhibition of binding of interleukin 2 to the interleukin-2 receptor” value (result in words, Tilley et al. 1997) is given as “inhibits the binding of interleukin 2”.
